# Biological target: T1, Endothelin receptor type B (Homo sapiens, UniProt P24530)
# T1 sequence (P24530 whole entry): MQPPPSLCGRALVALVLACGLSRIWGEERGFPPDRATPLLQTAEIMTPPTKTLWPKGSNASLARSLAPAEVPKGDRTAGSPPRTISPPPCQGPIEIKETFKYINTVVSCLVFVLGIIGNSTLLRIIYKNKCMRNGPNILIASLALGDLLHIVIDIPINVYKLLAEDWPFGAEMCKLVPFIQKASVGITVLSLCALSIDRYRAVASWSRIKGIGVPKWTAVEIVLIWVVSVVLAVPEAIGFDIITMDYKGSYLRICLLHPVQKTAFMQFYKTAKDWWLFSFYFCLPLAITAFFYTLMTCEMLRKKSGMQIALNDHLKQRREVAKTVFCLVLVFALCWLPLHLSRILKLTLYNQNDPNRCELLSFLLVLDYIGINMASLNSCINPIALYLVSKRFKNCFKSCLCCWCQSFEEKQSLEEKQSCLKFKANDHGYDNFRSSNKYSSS
# Experiment: Displacement of radioligand from ETB receptor in human placenta cell membranes
# Conditions: not given
row,IC50 [nM],SMILES
1,8500,O=S(=O)(Nc1ncnc(OCCO)c1-c1ccc(Cl)cc1)c1ccc(Cl)cc1
2,2000,O=S(=O)(Nc1ncnc(OCCO)c1-c1ccc(Cl)cc1)c1ccc(C(F)(F)F)cc1
3,175,COc1ccccc1Oc1c(NS(=O)(=O)c2ccc(C)cn2)nc(-c2ccnc(-c3nnn[nH]3)c2)nc1OCCO [CLAZOSENTAN]
4,21,COc1ccccc1Oc1c(NS(=O)(=O)c2ccc(C(C)C)cn2)nc(-c2ccnc(-c3nnn[nH]3)c2)nc1OCCO [TEZOSENTAN]

# Biological target: T2, Endothelin-1 receptor (Homo sapiens, UniProt P25101)
# T2 sequence (P25101 whole entry): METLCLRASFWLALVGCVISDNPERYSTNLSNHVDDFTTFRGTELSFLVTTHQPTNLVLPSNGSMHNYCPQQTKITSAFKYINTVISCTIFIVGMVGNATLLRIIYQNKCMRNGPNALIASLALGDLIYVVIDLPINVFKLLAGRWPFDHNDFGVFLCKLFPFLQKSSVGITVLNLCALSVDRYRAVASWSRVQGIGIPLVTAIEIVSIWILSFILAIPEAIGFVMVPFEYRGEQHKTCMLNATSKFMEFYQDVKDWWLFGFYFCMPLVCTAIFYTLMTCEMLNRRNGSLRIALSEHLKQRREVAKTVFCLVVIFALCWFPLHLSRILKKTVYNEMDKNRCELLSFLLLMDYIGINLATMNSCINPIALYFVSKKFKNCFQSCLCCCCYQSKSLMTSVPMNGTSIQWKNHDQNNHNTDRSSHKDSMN
# Experiment: Displacement of 125I-ET1 from human placenta cell membrane ETA receptor expressed in Baculovirus-infected insect cells
# Conditions: not given
row,IC50 [nM],SMILES
1,1000,Cc1ccc(-c2c(NS(=O)(=O)c3ccc(C(C)(C)C)cc3)ncnc2OCCO)cc1
2,> 100000,COc1cccc(Oc2c(NS(=O)(=O)c3ccc(SC)cc3)cc(C(=O)Nc3ccccc3)cc2OCCO)c1
3,35,COc1ccc(Cl)c(Oc2c(NS(=O)(=O)c3ccc(C(C)(C)C)cc3)nc(N3CCOCC3)nc2OCCO)c1
4,1.4,COc1ccccc1Oc1c(NS(=O)(=O)c2ccc(C(C)C)cn2)nc(-c2ccncc2)nc1OC
5,2000,COc1ccccc1Cc1c(NS(=O)(=O)c2ccc(C(C)(C)C)cc2)ncnc1OCCO

# Biological target: T3, Endothelin-1 receptor (Rattus norvegicus, UniProt P26684)
# T3 sequence (P26684 whole entry): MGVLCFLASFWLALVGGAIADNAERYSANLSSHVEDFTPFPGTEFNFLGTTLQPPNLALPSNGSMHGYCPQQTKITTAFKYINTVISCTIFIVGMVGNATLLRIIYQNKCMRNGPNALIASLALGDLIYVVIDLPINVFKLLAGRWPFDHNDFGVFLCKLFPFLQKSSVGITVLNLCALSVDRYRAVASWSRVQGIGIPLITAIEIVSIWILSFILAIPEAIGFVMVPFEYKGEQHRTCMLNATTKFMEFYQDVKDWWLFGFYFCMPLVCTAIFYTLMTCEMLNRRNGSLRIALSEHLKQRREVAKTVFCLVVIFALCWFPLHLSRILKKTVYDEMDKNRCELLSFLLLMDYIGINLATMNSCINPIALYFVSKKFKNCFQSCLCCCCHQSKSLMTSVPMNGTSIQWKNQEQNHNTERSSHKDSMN
# Experiment: Displacement of 125I-ET1 from ETA receptor in rat A7R5 cells
# Assay type: cell-based
# Conditions: not given
row,IC50 [nM],SMILES
1,3.6,COCCOc1nc(-c2ncccn2)nc(NS(=O)(=O)CCc2ccccc2)c1Oc1ccccc1OC
2,0.026,CSc1cnc(OCCOc2ncnc(NS(=O)(=O)c3ccc(C(C)(C)C)cc3)c2-c2cc3ccccc3s2)nc1
3,1.6,COc1ccccc1Oc1c(NS(=O)(=O)/C=C/c2ccccc2)nc(-c2ncccn2)nc1OCCO

# Biological target: T1, Endothelin receptor type B
# Experiment: Displacement of [125I]-ET-1 from human ETB receptor expressed in CHO cell membranes after 2 hrs by scintillation counting
# Conditions: not given
Ki [nM],IC50 [nM],SMILES
371,,COc1cc(OC)nc(O[C@H](C(=O)O)C(OC)(c2ccccc2)c2ccccc2)n1
,1800,Cc1ccc(C2=C(C(=O)O)C(c3ccc4c(c3)OCO4)Oc3ccc(OC(C)C)cc32)s1 (centres undefined)
,3.5,Cc1ccc(=O)n([C@@H](C(=O)NS(=O)(=O)c2ccc(C(C)C)cc2)c2ccc3c(c2)OCO3)n1
,686,CCCNS(=O)(=O)Nc1ncnc(OCCOc2ncc(SC)cn2)c1-c1ccc(Cl)cc1
,315,CCCNS(=O)(=O)Nc1ncnc(OCCOc2ncc(SC)cn2)c1Oc1ccccc1OC
,42,COc1ccccc1Oc1c(NS(=O)(=O)c2ccc(C(C)C)cn2)nc(N2CCOCC2)nc1OCC#CCOC(=O)c1ccccn1
,63,CCCCNS(=O)(=O)Nc1ncnc(OCCOc2ncc(SC)cn2)c1-c1ccc(Br)cc1
,29,CC#CCOc1nc(-c2ccnc(-c3nnn[nH]3)c2)nc(NS(=O)(=O)c2ccc(C(C)(C)C)cc2)c1Oc1ccccc1OC
,82,CCCNS(=O)(=O)Nc1ncnc(OCCOc2ncc(SC)cn2)c1-c1ccc(Br)cc1
,90,CCCNS(=O)(=O)Nc1ncnc(OCCOc2ncc(SC)cn2)c1Oc1cccc(OC)c1
,210,CCCCNS(=O)(=O)Nc1ncnc(OCCOc2ncc(OC)cn2)c1-c1ccc(Br)cc1
,516,CCCNS(=O)(=O)Nc1ncnc(OCCOc2ncc(OC)cn2)c1-c1ccc(Br)cc1
,290,CNS(=O)(=O)Nc1ncnc(OCCOc2ncc(SC)cn2)c1-c1ccc(Br)cc1
,100,COc1ccccc1Oc1c(NS(=O)(=O)CCc2cccs2)nc(N2CCOCC2)nc1OCCOC(=O)Nc1ccccn1
25,,CCCc1nc(C)ccc1O[C@@H](C(=O)NS(=O)(=O)c1ccc(C(C)C)cc1)c1ccc2c(c1)OCO2
,555,CNS(=O)(=O)Nc1ncnc(OCCOc2ncc(SC)cn2)c1-c1ccc(Cl)cc1
,288,COc1ccccc1Oc1c(NS(=O)(=O)c2ccc(C)cn2)nc(-c2ccnc(-c3noc(=S)[nH]3)c2)nc1OCC1CCCO1 (centres undefined)
,1430,CCCNS(=O)(=O)Nc1ncnc(OCCOc2ncc(Br)cn2)c1Oc1ccccc1OC
,569,COc1cnc(OCCOc2nc(-c3ccncc3)nc(NS(=O)(=O)NCc3ccccc3)c2-c2ccc(Cl)cc2)nc1
,542,COc1ccc(Cl)c(Oc2c(NS(C)(=O)=O)ncnc2OCCOc2ncc(S(C)(=O)=O)cn2)c1
,> 100,COc1nc(C)cnc1NS(=O)(=O)c1cccnc1-c1ccc(-c2nnco2)cc1 [ZIBOTENTAN]

# Biological target: T2, Endothelin-1 receptor
# Experiment: Displacement of 125I-ET1 from ETA receptor (unknown origin) expressed in CHO cells
# Assay type: cell-based
# Conditions: not given
row,IC50 [nM],SMILES
1,1.7,COc1ccccc1Oc1c(NS(=O)(=O)c2ccc(C)cn2)nc(-c2ccnc(-c3nnn[nH]3)c2)nc1OCCO [CLAZOSENTAN]
2,18,COc1ccccc1Oc1c(NS(=O)(=O)c2ccc(C(C)C)cn2)nc(-c2ccnc(-c3nnn[nH]3)c2)nc1OCCO [TEZOSENTAN]

# Biological target: T3, Endothelin-1 receptor
# Experiment: Antagonist activity at rat aortic ring ETA receptor in presence of ET1
# Conditions: read-out: pA2 (converted)
row,Kb [nM],SMILES
1,126,COc1ccccc1Oc1c(NS(=O)(=O)c2ccc(C(C)(C)C)cc2)nc(-c2ccccc2)nc1OCCO
2,20,COc1ccccc1Oc1c(NS(=O)(=O)c2ccc(C(C)C)cn2)nc(N2CCOCC2)nc1OCC#CCOC(=O)c1ccccn1
3,955,COc1ccccc1Oc1c(NS(=O)(=O)c2ccc(C(C)(C)C)cc2)ncnc1OCCO
4,1580,O=S(=O)(Nc1ncnc(OCCO)c1-c1ccc(Cl)cc1)c1ccc(C(F)(F)F)cc1
5,39.8,COc1ccccc1Oc1c(NS(=O)(=O)c2ccc(C(C)(C)C)cc2)nc(-c2ncccn2)nc1OCCO [BOSENTAN]

# Biological target: T2, Endothelin-1 receptor
# Experiment: Displacement of radioligand from ETA receptor (unknown origin) expressed in fall armyworm sf9 cell membranes
# Conditions: not given
row,IC50 [nM],SMILES
1,26000,CC(C)(C)c1ccc(S(=O)(=O)Nc2nc(-c3ncccn3)nc(OCCO)c2Oc2ccccc2O)cc1
2,800,COc1ccccc1Oc1c(NS(=O)(=O)c2ccc(C(C)(C)C)cc2)nc(-c2ccccc2)nc1OCCO
3,10000,O=S(=O)(Nc1ncnc(OCCO)c1-c1ccc(Cl)cc1)c1ccc(Cl)cc1
4,> 100000,COc1ccccc1Oc1c(OCCO)nc(-c2ncccn2)nc1N(C)S(=O)(=O)c1ccc(C(C)(C)C)cc1
5,1500,COc1ccccc1Oc1c(NS(=O)(=O)c2ccc(C(C)(C)C)cc2)ncnc1OCCO
6,133000,COc1ccccc1Oc1c(NS(=O)(=O)c2ccc(C(C)(C)C)cc2)nc(-c2ncccn2)[nH]c1=O
7,1500,COc1ccccc1Oc1c(NS(=O)(=O)c2ccccc2)nc(-c2ncccn2)nc1OCCO
8,18000,O=S(=O)(Nc1ncnc(OCCO)c1-c1ccc(Cl)cc1)c1ccc(C(F)(F)F)cc1

# Biological target: T2, Endothelin-1 receptor
# Experiment: Displacement of [125I]-ET-1 from human ETA receptor expressed in CHO cell membranes after 2 hrs by scintillation counting
# Conditions: not given
Ki [nM],IC50 [nM],SMILES
6,,COc1cc(OC)nc(O[C@H](C(=O)O)C(OC)(c2ccccc2)c2ccccc2)n1
,1,Cc1ccc(C2=C(C(=O)O)C(c3ccc4c(c3)OCO4)Oc3ccc(OC(C)C)cc32)s1 (centres undefined)
,29,Cc1ccc(=O)n([C@@H](C(=O)NS(=O)(=O)c2ccc(C(C)C)cc2)c2ccc3c(c2)OCO3)n1
,1.5,CCCNS(=O)(=O)Nc1ncnc(OCCOc2ncc(SC)cn2)c1-c1ccc(Cl)cc1
,9.4,CCCNS(=O)(=O)Nc1ncnc(OCCOc2ncc(SC)cn2)c1Oc1ccccc1OC
,1,COc1ccccc1Oc1c(NS(=O)(=O)c2ccc(C(C)C)cn2)nc(N2CCOCC2)nc1OCC#CCOC(=O)c1ccccn1
,0.3,CCCCNS(=O)(=O)Nc1ncnc(OCCOc2ncc(SC)cn2)c1-c1ccc(Br)cc1
,0.3,CCCCNS(=O)(=O)Nc1ncnc(OCCOc2ncc(SC)cn2)c1-c1ccc(Cl)cc1
,0.7,O=C(O)CCNS(=O)(=O)Nc1ncnc(OCCOc2ncc(Br)cn2)c1-c1ccc(Br)cc1
,33,CC#CCOc1nc(-c2ccnc(-c3nnn[nH]3)c2)nc(NS(=O)(=O)c2ccc(C(C)(C)C)cc2)c1Oc1ccccc1OC
,0.1,CCCNS(=O)(=O)Nc1ncnc(OCCOc2ncc(SC)cn2)c1-c1ccc(Br)cc1
,1.4,CCCNS(=O)(=O)Nc1ncnc(OCCOc2ncc(SC)cn2)c1Oc1cccc(OC)c1
,0.5,CCCCNS(=O)(=O)Nc1ncnc(OCCOc2ncc(OC)cn2)c1-c1ccc(Br)cc1
,1.1,CCCc1nc(SC2CCC(CC(=O)O)CC2)c(C(=O)O)n1Cc1cc2c(cc1Cl)OCO2 (centres undefined)
,2.4,CCCNS(=O)(=O)Nc1ncnc(OCCOc2ncc(OC)cn2)c1-c1ccc(Br)cc1
,2,CNS(=O)(=O)Nc1ncnc(OCCOc2ncc(SC)cn2)c1-c1ccc(Br)cc1
,1,COc1ccccc1Oc1c(NS(=O)(=O)CCc2cccs2)nc(N2CCOCC2)nc1OCCOC(=O)Nc1ccccn1
0.11,,CCCc1nc(C)ccc1O[C@@H](C(=O)NS(=O)(=O)c1ccc(C(C)C)cc1)c1ccc2c(c1)OCO2
,0.7,CCNS(=O)(=O)Nc1ncnc(OCCOc2ncc(SC)cn2)c1-c1ccc(Br)cc1
,3.3,CNS(=O)(=O)Nc1ncnc(OCCOc2ncc(SC)cn2)c1-c1ccc(Cl)cc1
,6,COc1ccccc1Oc1c(NS(=O)(=O)c2ccc(C)cn2)nc(-c2ccnc(-c3noc(=S)[nH]3)c2)nc1OCC1CCCO1 (centres undefined)
,15.4,CCCNS(=O)(=O)Nc1ncnc(OCCOc2ncc(Br)cn2)c1Oc1ccccc1OC
,2,COc1cnc(OCCOc2nc(-c3ccncc3)nc(NS(=O)(=O)NCc3ccccc3)c2-c2ccc(Cl)cc2)nc1
,2,Cc1ccc(-c2c(NS(=O)(=O)/C=C/c3ccccc3)ncnc2OCCOc2ncc(Br)cn2)cc1
,3,COc1ccc(Cl)c(Oc2c(NS(C)(=O)=O)ncnc2OCCOc2ncc(S(C)(=O)=O)cn2)c1
,1,COC(c1ccccc1)(c1ccccc1)[C@H](Oc1nc(C)cc(C)n1)C(=O)O [AMBRISENTAN]

# From ChEMBL document CHEMBL4425117 (Bioorg Med Chem Lett, 2016)
